Laboratory results from article PMC10214526, “Semisynthetic LC3 Probes for Autophagy Pathways Reveal a Noncanonical LC3 Interacting Region Motif Crucial for the Enzymatic Activity of Human ATG3” (ACS Central Science, 2023).

Tested on: Ube2K
Assay: Reaction of Ubl probes with ubiquitin E2 Ube2K
Type: biochemical
Conditions: probe 15 μM, Ube2K 15 μM, 1 h, SDS-PAGE
Experimental: Figure 1 Modification of ATG3 with GABARAP ABPs depends on LIR^ATG3. a. Characterization of GABARAP activity-based probes, 1 and 2, obtained by hydrazide-acylation. Deconvoluted mass-spectrum (ESI) of GABARAP(ΔG116)–NHNH α-chloroacetyl 1. Expected mass 13707 Da. Deconvoluted mass-spectrum (ESI) of GABARAP(ΔG116)–NHNH methyl-fumarate 2. Expected mass 13743 Da. b. […] The reaction was allowed to proceed for 1 h and was analyzed by SDS-PAGE and Coomassie Blue staining. c. ColabFold-predicted structure of the protein-complex of ATG3 and GABARAP. Side-chain atoms are shown for the predicted LIR motif in ATG3 (90–112). d. Reaction of 2 (15 μM) with ATG3 variants C1, C0, and ΔLIR (15 μM). ATG3 C1 contains only active-site cysteine C264. ATG3 C0 contains no cysteines. ATG3 ΔLIR lacks amino acids 95–111. Reaction was allowed to proceed for 1 h and was analyzed by SDS-PAGE and Coomassie Blue staining. […]
Farnung et al. Supplementary Information and monitored using LC-MS analysis. […]
SUMO-GABARAP/LC3A-Mxe GyrA-His6 fusion after Ni-NTA purification was dialyzed against intein cleavage buffer (25 mM HEPES, 500 mM NaCl, 1 mM EDTA pH 7.2 at 4 °C). […] The solution was allowed to stand at room temperature and monitored using LC-MS analysis. […]
Ubl probes (15 μM) were mixed with E2s (15 μM) in PBS. […] If required, gel bands were quantified by gel densitometry using ImageLab (Bio- […]

## GABARAP(ΔG116)–NHNH methyl-fumarate [compound 2]
  Reaction with Ube2K: did not react
